Assay results reported in article PMC6321145 (Molecules, 2018).

Tests used:
[1] = Oxygen radical absorbance capacity with fluorescein (ORAC-FL) assay
Method: Oxidative stress is another crucial event in AD pathogenesis. In order to determine antioxidant activities of our synthetic compounds, the oxygen radical absorbance capacity method with fluorescein (ORAC-FL) assay was performed. with Trolox (6-hydroxy-2,5,7,8-tetramethylchroman-2-carboxylic acid) as the standard, and their antioxidant activity was expressed as Trolox equivalents.
The antioxidant activities of the compounds in vitro were determined by the oxygen radical absorbance capacity fluorescein (ORAC-FL) assay. The tested compounds and (±)-6-hydroxy-2,5,7,8-tetramethylchroman-2-carboxylic acid (Trolox) were dissolved in DMSO at a concentration of 10 mM, and then diluted with 75 mM potassium phosphate buffer (pH 7.4) to 50 μM and 10 μM for use. The fluorescein (FL) stock solution (3.4 mM) was diluted with the same buffer to 136 nM. All the assays were conducted with 75 mM potassium phosphate bufffer (pH 7.4), and the final reaction mixture was 200 μL.
The mixture of compounds (or buffer) (20 μL) and fluorescein (FL, 120 μL) were incubated for 15 min at 37 °C in a black 96-well plate. Then 2,2′-azobis-(amidino-propane)-dihydrochloride (AAPH) solution (60 μL, 40 mM) was rapidly added to the reaction mixture. The fluorescence was recorded every 5 min for 240 min at 485 nm (excitation wavelength) and 535 nm (emission wavelength) (Varioskan Flash Multimode Reader, Thermo Scientific, Waltham, MA, USA), and each sample was prepared and measured for three times independently. […] The net AUC for a sample was calculated using the expression net AUC = AUCsample − AUCblank, The ORAC-FL value of each sample was calculated using the equation of net AUCsample/(AUCTrolox – AUCblank), which was expressed as Trolox equivalents.

Aβ1–42 = target: T1, Aβ1–42 (Homo sapiens, UniProt P05067); assay: Inhibition of self-induced Aβ1–42 aggregation (ThT fluorescence assay); format: biochemical
T1 construct: Aβ1–42 (Sigma, St. Louis, MO, USA; counterion, NaOH) stock solution was prepared by dissolving Aβ1–42 peptide in ammonium hydroxide; purchased Sigma
Method: The formation and aggregation of Aβ1–42 in the brain leads to neurotoxicity in AD. In order to evaluate the activity of our new synthetic compounds to inhibit Aβ1–42 self-induced aggregation, the thioflavin (ThT) fluorescence assay was performed.
All ThT experiments were performed according to our previously published methods. Aβ1–42 (Sigma, St. Louis, MO, USA; counterion, NaOH) stock solution was prepared by dissolving Aβ1–42 peptide in ammonium hydroxide (1% v/v), and diluting with 20 mM phosphate buffer (pH 7.4) to 100 μM. The tested compounds were firstly dissolved in DMSO at a concentration of 10 mM, and then diluted with 20 mM phosphate buffer (pH 7.4) to 40 μM.
For the inhibition of self-induced Aβ1–42 aggregation. Aβ1–42 peptide (2 μL, 50 μM, final concentration) with the tested compound (2 μL, 20 μM, final concentration) or 20 mM phosphate buffer (2 μL) was incubated in 20 mM phosphate buffer (pH 7.4) at 37 °C for 72 h. After incubation, the samples were diluted to a final volume of 36 μL with 50 mM glycine-NaOH buffer (pH 8.5) containing 5 μM Thioflavin T. Fluorescence signal was measured (excitation wavelength 450 nm, emission wavelength 485 nm, and slit widths set to 5 nm) on a monochromator-based multimode microplate reader ([…] M1000, TECAN, Hombrechtikon, Switzerland), adapted for 384-well microtiter plates. […] Each compound was examined in triplicate.

[2] = Cytotoxicity on SH-SY5Y cells (MTT); format: cell-based, human; conditions: human, SH-SY5Y neuroblastoma cells; MTT, 24 h; mean ± SEM of three measurements
Method: The cytotoxicity of our synthesized compounds was examined in human neuroblastoma SH-SY5Y cells. The cell viability was determined by using methyl thiazolyl tetrazolium (MTT) colorimetry, the cells were treated with different concentrations of compounds (0–100 μM). The result is shown in the Supplementary Materials (Table S1).
The cytotoxicities of the compounds were evaluated using the MTT assay. SH-SY5Y cells were subcultured in 96-well plates at a seeding density of 1 × 10^4 cells per well. After 24 h, the medium was removed and treated with different concentrations of tested compounds for 24 h at 37 °C. The survival of cells was determined with MTT assay. Then 80 μL of medium and 20 μL of MTT (0.5 mg/mL, final concentration) were added to each well and incubated for another 4 h. After the removal of MTT, the formazan crystals were dissolved in DMSO. The amount of formazan was measured using a microculture plate reader at the wavelength of 570 nm. Each concentration was performed in triplicate.

[3] = inhibitor 20 μM, Aβ1–42 50 μM, ThT, 37 °C, 72 h, mean ± SD

T1 sequence (P05067 672-713): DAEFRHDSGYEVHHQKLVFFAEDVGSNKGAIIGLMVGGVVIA

SMILES	ORAC ([1]; compound 1 μM)	ORAC ([1]; compound 5 μM)	inhibition at 20 µM (Aβ1–42; [3]) [%]	melting point [°C]	IC50 at 24 h [2] [µM]	IC50 (Aβ1–42; ThT fluorescence method, mean ± SD of three experiments, read-out: IC50 against self-induced Aβ1–42 aggregation) [µM]	Aβ1–42 Aggregation Inhibition (%) (Aβ1–42; [3])
CCN(CC)c1ccc(/C=C/c2cc(N3CCCCC3)c3ccccc3n2)cc1 [Compound 4b1, reference compound]	3.70 ± 0.11 μmol of Trolox equivalents/μmol of tested compounds	3.91 ± 0.11 μmol of Trolox equivalents/μmol of tested compounds	83.5 ± 1.4	–	–	–	–
CN(C)c1ccc(/C=C/c2cc(N3CCCCC3)c3ccccc3n2)cc1 [Compound 4b2, reference compound]	2.91 ± 0.11 μmol of Trolox equivalents/μmol of tested compounds	3.12 ± 0.10 μmol of Trolox equivalents/μmol of tested compounds	81.2 ± 0.8	–	–	–	–
CCN(CC)CCCNc1cc(/C=C/c2ccc(N(C)C)cc2)nc2ccccc12 [Compound 6a2, (E)-N^1-(2-(4-(Dimethylamino)styryl)quinolin-4-yl)-N^3,N^3-diethylpropane-1,3-diamine]	5.74 ± 0.09 μmol of Trolox equivalents/μmol of tested compounds	–	88.5 ± 1.5	168.5 to 170.1	187.5 ± 0.2	–	–
CCN(CC)CCCNc1cc(/C=C/c2c[nH]c3ccccc23)nc2ccccc12 [Compound 6a3, (E)-N^1-(2-(2-(1H-Indol-3-yl)vinyl)quinolin-4-yl)-N^3,N^3-diethylpropane-1,3-diamine]	1.26 ± 0.06 μmol of Trolox equivalents/μmol of tested compounds	1.73 ±0.07 μmol of Trolox equivalents/μmol of tested compounds	84.3 ± 2.1	194.3 to 195.1	147.8 ± 0.3	–	–
CN(C)CCCNc1cc(/C=C/c2ccc(N(C)C)cc2)nc2ccccc12 [Compound 6b2, (E)-N^1-(2-(4-(Dimethylamino)styryl)quinolin-4-yl)-N^3,N^3-dimethylpropane-1,3-diamine]	5.61 ± 0.09 μmol of Trolox equivalents/μmol of tested compounds	5.88 ± 0.01 μmol of Trolox equivalents/μmol of tested compounds	92.1 ± 1.3	151.2 to 153.3	228	6.1 ± 0.8	–
CCN(CC)c1ccc(/C=C/c2cc(NCCN(C)C)c3ccccc3n2)cc1 [Compound 6c1, (E)-N^1-(2-(4-(Diethylamino)styryl)quinolin-4-yl)-N^2,N^2-dimethylethane-1,2-diamine]	2.79 ± 0.04 μmol of Trolox equivalents/μmol of tested compounds	3.24 ± 0.10 μmol of Trolox equivalents/μmol of tested compounds	85.1 ± 1.4	145.2 to 147.1	154.3 ± 0.5	–	–
CN(C)CCNc1cc(/C=C/c2ccc(N(C)C)cc2)nc2ccccc12 [Compound 6c2, (E)-N^1-(2-(4-(Dimethylamino)styryl)quinolin-4-yl)-N^2,N^2-dimethylethane-1,2-diamine]	3.28 ± 0.09 μmol of Trolox equivalents/μmol of tested compounds	3.53 ± 0.07 μmol of Trolox equivalents/μmol of tested compounds	83.9 ± 2.4	148.9 to 149.6	127.5 ± 0.4	–	–
CCCCNc1cc(/C=C/c2ccc(N(CC)CC)cc2)nc2ccccc12 [Compound 6d1, (E)-N-Butyl-2-(4-(diethylamino)styryl)quinolin-4-amine]	1.38 ± 0.02 μmol of Trolox equivalents/μmol of tested compounds	1.56 ± 0.05 μmol of Trolox equivalents/μmol of tested compounds	80.5 ± 1.4	172.5 to 173.8	119.3 ± 0.7	–	–
CCCCNc1cc(/C=C/c2ccc(N(C)C)cc2)nc2ccccc12 [Compound 6d2, (E)-N-Butyl-2-(4-(dimethylamino)styryl)quinolin-4-amine]	0.75 ± 0.06 μmol of Trolox equivalents/μmol of tested compounds	0.95 ± 0.09 μmol of Trolox equivalents/μmol of tested compounds	79.2 ± 2.3	165.3 to 167.1	112.4 ± 0.6	–	–
COc1cc(/C=C/C(=O)CC(=O)/C=C/c2ccc(O)c(OC)c2)ccc1O [Cur, curcumin, reference compound]	–	–	–	–	–	–	49.3 ± 1.2
